We go through 1 compound from patent US20050239656A1, “Pyridine compounds or salts thereof and herbicides containing the same” (priority 2002, published 2005).

Each structure is given as a SMILES string.

Usually melting point stands for the temperature, or range, at which the solid turns liquid.

Data set [1] has as its system soybean. The data set can be described thus: Test Example 2: soil surface treatment, upland pot test. It is filed as in vivo, Glycine max Merr. Particulars: active ingredient 1000 g/ha, observed 20th to 28th day. In short, it runs like this:
(§1)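 Readout was visual percent growth control (0 matching untreated, 100 complete kill) at days 20–28. Compound, as emulsifiable concentrate or wettable powder at a preset active-ingredient rate in 1,500 L/ha water, was sprayed onto sown upland soil one day after sowing.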

Another data set deals with rice (var. Nihonbare). The data set can be described thus: Test Example 3: paddy pot test, transplanted rice. In kind it is in vivo, Oryza sativa L. Particulars: active ingredient 500 g/ha, applied 4th day after transplantation, visually observed 21st day after application, 0 = non-treated, 100 = complete kill. In short, it runs like this: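 Rice (var. Nihonbare) at 2 leaf stage transplanted 3 cm deep into puddled paddy soil under 3–4 cm flooding; on day 4 after transplanting, diluted wettable powder or emulsifiable concentrate applied by pipette under submerged conditions at a set active-ingredient dose. Growth scored visually 21 days after application, 0 (untreated) to 100 (complete kill) %.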

Data set [2] deals with soybean. The data set can be described thus: Test Example 1: foliage treatment, upland pot test. In kind it is in vivo, Glycine max Merr. The following applies: crop, active ingredient 1000 g/ha, observed 18th to 23rd day, 0 = non-treated, 100 = complete kill. In short, it runs like this:
(§2)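 Visual growth-control score, 0% (like untreated) to 100% (complete kill), taken on days 18 to 23 after foliar spraying. Leaf stage at treatment: barnyardgrass 1.3–2.8, rice 1.2–2.6, wheat 1.3–2.4, soybean 0.1–0.4. Spray: wettable powder or EC in 500 L/ha water, 0.1% v/v spreader added.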

Data set [3] has as its system redroot pigweed. Nature of the data set: Test Example 1: foliage treatment, upland pot test. It is filed as in vivo, Amaranthus retroflexus L. Particulars: active ingredient 1000 g/ha, observed 18th to 23rd day, 0 = non-treated, 100 = complete kill.
Data set [4] deals with velvetleaf. The data set can be described thus: Test Example 1: foliage treatment, upland pot test. Particulars: active ingredient 1000 g/ha, observed 18th to 23rd day, 0 = non-treated, 100 = complete kill. It is filed as in vivo, Abutilon theophrasti MEDIC.
Data set [5] concerns wheat. The data set can be described thus: Test Example 1: foliage treatment, upland pot test. It is filed as in vivo, Triticum spp. The following applies: crop, active ingredient 1000 g/ha, observed 18th to 23rd day, 0 = non-treated, 100 = complete kill. A digest of the protocol:
as §2

The test system of data set [6] is prickly sida. The data set can be described thus: Test Example 2: soil surface treatment, upland pot test. It is filed as in vivo, Sida spinosa L. Particulars: active ingredient 1000 g/ha, observed 20th to 28th day. A digest of the protocol:
as §1

The subject of data set [7] is wheat. The data set is described as above. In kind it is in vivo, Triticum spp. The following applies: active ingredient 1000 g/ha, observed 20th to 28th day. In short, it runs like this:
as §1

The subject of data set [8] is crabgrass. Nature of the data set: Test Example 1: foliage treatment, upland pot test. Particulars: active ingredient 1000 g/ha, observed 18th to 23rd day, 0 = non-treated, 100 = complete kill. It is filed as in vivo, Digitaria sanguinalis L.
In data set [9] the test system is green foxtail. Nature of the data set: Test Example 2: soil surface treatment, upland pot test. The following applies: active ingredient 1000 g/ha, observed 20th to 28th day. It is filed as in vivo, Setaria viridis L. In short, it runs like this: as §1
For data set [10], the system named is corn. The data set can be described thus: Test Example 1: foliage treatment, upland pot test. Particulars: crop, active ingredient 1000 g/ha, observed 18th to 23rd day, 0 = non-treated, 100 = complete kill. In kind it is in vivo, Zea mays L. In short, it runs like this: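 In this upland pot foliage test, corn plants at 2.1 to 3.2 leaf stages were sprayed by a small size sprayer. The spray was a conventionally formulated wettable powder or emulsifiable concentrate weighed to a set active ingredient amount, diluted in water at 500 L/ha, plus 0.1% (v/v) agricultural spreader. Visual assessment on days 18 to 23 gave growth controlling degree (%), where 0 equals untreated and 100 means complete kill.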

For data set [11], the system named is green foxtail. The data set can be described thus: Test Example 1: foliage treatment, upland pot test. In kind it is in vivo, Setaria viridis L. The following applies: active ingredient 1000 g/ha, observed 18th to 23rd day, 0 = non-treated, 100 = complete kill.
Data set [12] deals with crabgrass. Nature of the data set: Test Example 2: soil surface treatment, upland pot test. In kind it is in vivo, Digitaria sanguinalis L. The following applies: active ingredient 1000 g/ha, observed 20th to 28th day. A digest of the protocol:
as §1

In data set [13] the test system is rice. Nature of the data set: Test Example 1: foliage treatment, upland pot test. The following applies: crop, active ingredient 1000 g/ha, observed 18th to 23rd day, 0 = non-treated, 100 = complete kill. It is filed as in vivo, Oryza sativa L. A digest of the protocol:
as §2

Data set [14] relates to prickly sida. The data set can be described thus: Test Example 1: foliage treatment, upland pot test. Particulars: active ingredient 1000 g/ha, observed 18th to 23rd day, 0 = non-treated, 100 = complete kill. In kind it is in vivo, Sida spinosa L.
Data set [15] concerns barnyardgrass. Nature of the data set: Test Example 2: soil surface treatment, upland pot test. In kind it is in vivo, Echinochloa crus-galli L. Particulars: active ingredient 1000 g/ha, observed 20th to 28th day, 0 = non-treated, 100 = complete kill. A digest of the protocol:
as §1

The subject of data set [16] is redroot pigweed. The data set is described as above. Particulars: active ingredient 1000 g/ha, observed 20th to 28th day. It is filed as in vivo, Amaranthus retroflexus L. A digest of the protocol: as §1
For data set [17], the system named is corn. Described as above. It is filed as in vivo, Zea mays L. Particulars: active ingredient 1000 g/ha, observed 20th to 28th day. A digest of the protocol:
as §1

For data set [18], the system named is velvetleaf. The data set is described as above. It is filed as in vivo, Abutilon theophrasti MEDIC. The following applies: active ingredient 1000 g/ha, observed 20th to 28th day. In short, it runs like this: as §1
For data set [19], the system named is barnyardgrass. Nature of the data set: Test Example 1: foliage treatment, upland pot test. In kind it is in vivo, Echinochloa crus-galli L. Particulars: active ingredient 1000 g/ha, observed 18th to 23rd day, 0 = non-treated, 100 = complete kill. In short, it runs like this: as §2
Another data set has as its system japanese ribbon wapato. Nature of the data set: Test Example 3: paddy pot test, application under submerged conditions. Particulars: active ingredient 500 g/ha; submerged application at primary leaf stage; visually observed 14 days after application; 0 = non-treated, 100 = complete kill. It is filed as in vivo, Sagittaria pygniaea. A digest of the protocol:
(§3)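 Visual growth-control rating (0 = untreated, 100 = complete kill) 14 days after treatment. The formulated compound, as a diluted wettable powder or emulsifiable concentrate, went into 3–4 cm flood water at a predetermined active-ingredient dose once the weeds reached 0.5 leaf stage (wapato: primary leaf stage).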

Data set [20] has as its system rice. The data set can be described thus: Test Example 2: soil surface treatment, upland pot test. The following applies: active ingredient 1000 g/ha, observed 20th to 28th day. In kind it is in vivo, Oryza sativa L. In short, it runs like this: as §1
For the next data set, the system named is japanese bulrush. The data set can be described thus: Test Example 3: paddy pot test, application under submerged conditions. It is filed as in vivo, Scirpus juncoides. The following applies: active ingredient 500 g/ha; submerged application at 0.5 leaf stage; visually observed 14 days after application; 0 = non-treated, 100 = complete kill. In short, it runs like this:
as §3

Compound `CC(C)C(c1cnccc1C(F)(F)F)N(C)C(=O)Cc1ccccc1` (stereo not drawn) [I-1, N-methyl-N-[2-methyl-1-(4-trifluoromethylpyridin-3-yl)propyl]phenylacetamide] came in with a melting point of 71.2 °C. Further, the “Growth controlling degree (%) Soyabean” value in the data set with soybean [1] came to 50%. In the data set on rice (var. Nihonbare), the “Growth controlling degree (%) Rice” value amounted to 60%. Further, the “Growth controlling degree (%) Soybean” value with soybean [2] is 80%. In addition, the “Growth controlling degree (%) Redroot pigweed” value in the data set on redroot pigweed [3] came to 70%. Besides, the “Growth controlling degree (%) Velvetleaf” value in the data set with velvetleaf [4] turned out to be 90%. Moreover, in the data set with wheat [5], the “Growth controlling degree (%) wheat” value is on record as 60%. Besides, the “Growth controlling degree (%) Prickly sida” value in the data set with prickly sida [6] came out at 70%. The “Growth controlling degree (%) wheat” value in the data set on wheat [7] turned out to be 50%. The “Growth controlling degree (%) Crabgrass” value with crabgrass [8] came to 80%. Further, the “Growth controlling degree (%) Green foxtail” value with green foxtail [9] was 100%. Also, the “Growth controlling degree (%) Corn” value in the data set on corn [10] worked out at 70%. For the same compound, in the data set with green foxtail [11], the “Growth controlling degree (%) Green foxtail” value is 70%. Also, the “Growth controlling degree (%) Crabgrass” value in the data set on crabgrass [12] turned out to be 100%. In addition, the “Growth controlling degree (%) Rice” value in the data set with rice [13] came out at 60%. The “Growth controlling degree (%) Prickly sida” value in the data set on prickly sida [14] came to 80%. The “Growth controlling degree (%) Barnyardgrass” value in the data set on barnyardgrass [15] came out at 90%. Moreover, the “Growth controlling degree (%) Redroot pigweed” value with redroot pigweed [16] was found to be 80%. The “Growth controlling degree (%) Corn” value with corn [17] was 70%. Also, the “Growth controlling degree (%) Velvetleaf” value in the data set with velvetleaf [18] is given as 80%. Moreover, the “Growth controlling degree (%) Barnyardgrass” value with barnyardgrass [19] amounted to 80%. For the same compound, in the data set with japanese ribbon wapato, the “Growth controlling degree (%) Japanese ribbon wapato” value came to 95%. Also, in the data set on rice [20], the “Growth controlling degree (%) Rice” value is listed as 80%. The “Growth controlling degree (%) Japanese bulrush” value in the data set with japanese bulrush turned out to be 98%.
